In brackets after ≈: the same amount, converted by molar mass. Like-named read-outs stand apart in the source and are kept apart here.
Key:
P. acnes NCTC 737 = test: Minimum bactericidal concentration (MBC) assay; format: cell-based, Propionibacterium acnes
Procedure: The propionibacteria were cultured and maintained on Wilkins-Chalgren Anaerobe Medium (agar and broth) at pH 6.0; all cultures were incubated anaerobically at 37° C. for 72 hours. This assay, normally carried out after an MIC assay, determines the rnininiurn concentration of a compound that is lethal to the micro-organism being tested. […] These samples were then individually sub-cultured on antibiotic-free agar medium, under the incubation conditions described above. Following incubation they were examined visually for microbial growth.

P. granulosum NCTC 11865 = test: (S)DDA disc diffusion; format: cell-based, Propionibacterium granulosum
Procedure: (§1) The propionibacteria were cultured and maintained on Wilkins-Chalgren Anaerobe Medium (agar and broth) at pH 6.0; all cultures were incubated anaerobically at 37° C. for 72 hours.
(§2) A sterile paper disc was impregnated with a sample of the test compound in a suitable solvent and 30 minutes allowed for the solvents to evaporate (where possible). The disc was then placed on an agar plate onto which the test micro-organism had been inoculated. The plate was then incubated under the conditions described above, following which it was examined visually for signs of microbial growth. If the test compound had antimicrobial activity, a circular zone of no growth would be obtained around the disc. The diameter of this zone of “inhibition” was measured using a ProtoCOL™ automated zone sizer (Synbiosis, Cambridge, UK). In general, a greater diameter and/or area of the zone of inhibition indicates a greater antimicrobial activity in the relevant test compound, although other factors such as test compound mobility through the agar gel may also influence the result.
(§3) Two test a compounds A and B were placed on a single paper disc and the above described DDA procedure repeated. An increase in diameter of the zone of inhibition, compared to the greater of the zone diameters for the two compounds individually, was taken to indicate potential antimicrobial synergy. In practical terms, an increase of greater than 5 mm could be treated as significant.
(§4) Both the DDA and the SDDA test may be carried out using an agar gel supplemented with lipid and/or salt to simulate some of the major components present in human skin and to assess whether these substances might reduce the antimicrobial activity observed for the test compound. Performance under these conditions can provide a more reliable indication of activity on topical application. The supplements used in Examples 1, 11, 12 and 13 below were lipid (either Tween™ 80 at 1% v/v (Example 1) or triolein at 1% v/v (Examples 11, 12 and 13) and sodium chloride (100 mM).

P. granulosum PRP-005 = test: (S)DDA disc diffusion; format: cell-based, Propionibacterium granulosum
Procedure: as §1, §2, §3, §4

P. granulosum PRP-006 = test: (S)DDA disc diffusion; format: cell-based, Propionibacterium granulosum
Procedure: as §1, §2, §3, §4

P. granulosum PRP-019 = test: (S)DDA disc diffusion; format: cell-based, Propionibacterium granulosum
Procedure: as §1, §2, §3, §4

P. granulosum PRP-021 = test: (S)DDA disc diffusion; format: cell-based, Propionibacterium granulosum
Procedure: as §1, §2, §3, §4

P. granulosum PRP-043 = test: (S)DDA disc diffusion; format: cell-based, Propionibacterium granulosum
Procedure: as §1, §2, §3, §4

P. granulosum PRP-044 = test: (S)DDA disc diffusion; format: cell-based, Propionibacterium granulosum
Procedure: as §1, §2, §3, §4

P. granulosum PRP-055 = test: (S)DDA disc diffusion; format: cell-based, Propionibacterium granulosum
Procedure: as §1, §2, §3, §4

C. jeikeium NCTC 11915 = test: (S)DDA disc diffusion; format: cell-based, Corynebacterium jeikeium; conditions: for DDA: 200 μg per disc
Procedure: Several Corynebacterium test species were also used in this study, namely C. mucifaciens ATCC 700355, C. striatum NCTC 764, C. xerosis NCTC 11861 and C. jeikeium NCTC 11915. These Gram-positive pathogens are closely related to organisms (aerobic diphtheroids of the genus Corynebacterium) that cause body odour. C. mucifaciens and C. striatum were cultured and maintained on Mueller-Hinton Medium (agar and broth) and were incubated aerobically at 37° C. for 24 hours. C. xerosis and C. jeikeium were cultured and maintained on Mueller-Hinton Medium containing 5% (v/v) lysed horse blood (agar and broth) and were incubated aerobically at 37° C. for 72 hours. A sterile paper disc was impregnated with a sample of the test compound in a suitable solvent and 30 minutes allowed for the solvents to evaporate (where possible). The disc was then placed on an agar plate onto which the test micro-organism had been inoculated. The plate was then incubated under the conditions described above, following which it was examined visually for signs of microbial growth. If the test compound had antimicrobial activity, a circular zone of no growth would be obtained around the disc. The diameter of this zone of “inhibition” was measured using a ProtoCOL™ automated zone sizer (Synbiosis, Cambridge, UK). In general, a greater diameter and/or area of the zone of inhibition indicates a greater antimicrobial activity in the relevant test compound, although other factors such as test compound mobility through the agar gel may also influence the result. Two test a compounds A and B were placed on a single paper disc and the above described DDA procedure repeated. An increase in diameter of the zone of inhibition, compared to the greater of the zone diameters for the two compounds individually, was taken to indicate potential antimicrobial synergy. In practical terms, an increase of greater than 5 mm could be treated as significant. The activities of DOSS and TCC were determined, using (S)DDAs, against the test organisms C. mucifaciens ATCC 700355, C. striatum NCTC 764, C. xerosis NCTC 11861 and C. jeikeium NCTC 11915. 200 μg of the DOSS and/or the TCC were loaded onto each disc. All the experiments were conducted in triplicate.

[1] = P. granulosum NCTC 11865 (resistance None), 200 μg TCC or 50 μg DOSS per disc
[2] = P. granulosum PRP-005 (MLSK), 200 μg TCC or 50 μg DOSS per disc
[3] = P. granulosum PRP-006 (MLS), 200 μg TCC or 50 μg DOSS per disc
[4] = P. granulosum PRP-019 (MLSK), 200 μg TCC or 50 μg DOSS per disc
[5] = P. granulosum PRP-021 (MLS), 200 μg TCC or 50 μg DOSS per disc
[6] = P. granulosum PRP-043 (MLS), 200 μg TCC or 50 μg DOSS per disc
[7] = P. granulosum PRP-044 (MLS), 200 μg TCC or 50 μg DOSS per disc
[8] = P. granulosum PRP-055 (resistance None), 200 μg TCC or 50 μg DOSS per disc

O=C(Nc1ccc(Cl)cc1)Nc1ccc(Cl)c(Cl)c1 [TCC, N-(4-chlorophenyl)-N′-(3,4-dichlorophenyl) urea]
MBC (P. acnes NCTC 737; Cutibacterium acnes, NCTC737, read-out: MBC): 31.2 µg/mL (≈ 99 µM) | DDA (P. granulosum NCTC 11865; [1]): 17.78 mm | DDA (P. granulosum PRP-005; [2]): 12.13 mm | DDA (P. granulosum PRP-006; [3]): 10.17 mm | DDA (P. granulosum PRP-019; [4]): 0.00 mm | DDA (P. granulosum PRP-021; [5]): 0.00 mm | DDA (P. granulosum PRP-043; [6]): 8.84 mm | DDA (P. granulosum PRP-044; [7]): 0.00 mm | DDA (P. granulosum PRP-055; [8]): 17.16 mm | DDA (C. jeikeium NCTC 11915): 0.0 mm

dioctyl sodium sulphosuccinate [DOSS]
MBC (P. acnes NCTC 737): 62.5 µg/mL | MIC/MBC ratio (P. acnes NCTC 737): 0.25 | DDA (P. granulosum NCTC 11865; [1]): 14.70 mm | DDA (P. granulosum NCTC 11865; P. granulosum NCTC 11865, 200 μg per disc): 39.84 mm | DDA + salt (P. granulosum NCTC 11865; P. granulosum NCTC 11865, 200 μg per disc, sodium chloride 100 mM): 37.98 mm | DDA + lipid (P. granulosum NCTC 11865; P. granulosum NCTC 11865, 200 μg per disc, triolein 1% v/v): 38.60 mm | DDA (P. granulosum PRP-005; [2]): 26.31 mm | DDA (P. granulosum PRP-005; P. granulosum PRP-005, 200 μg per disc): 42.96 mm | DDA + salt (P. granulosum PRP-005; P. granulosum PRP-005, 200 μg per disc, sodium chloride 100 mM): 46.38 mm | DDA + lipid (P. granulosum PRP-005; P. granulosum PRP-005, 200 μg per disc, triolein 1% v/v): 40.47 mm | DDA (P. granulosum PRP-006; [3]): 19.01 mm | DDA (P. granulosum PRP-006; P. granulosum PRP-006, 200 μg per disc): 40.47 mm | DDA + salt (P. granulosum PRP-006; P. granulosum PRP-006, 200 μg per disc, sodium chloride 100 mM): 41.09 mm | DDA + lipid (P. granulosum PRP-006; P. granulosum PRP-006, 200 μg per disc, triolein 1% v/v): 40.16 mm | DDA (P. granulosum PRP-019; [4]): 19.94 mm | DDA (P. granulosum PRP-019; P. granulosum PRP-019, 200 μg per disc): 41.71 mm | DDA + salt (P. granulosum PRP-019; P. granulosum PRP-019, 200 μg per disc, sodium chloride 100 mM): 42.02 mm | DDA + lipid (P. granulosum PRP-019; P. granulosum PRP-019, 200 μg per disc, triolein 1% v/v): 42.65 mm | DDA (P. granulosum PRP-021; [5]): 0.00 mm | DDA (P. granulosum PRP-021; P. granulosum PRP-021, 200 μg per disc): 39.53 mm | DDA + salt (P. granulosum PRP-021; P. granulosum PRP-021, 200 μg per disc, sodium chloride 100 mM): 38.60 mm | DDA + lipid (P. granulosum PRP-021; P. granulosum PRP-021, 200 μg per disc, triolein 1% v/v): 42.02 mm | DDA (P. granulosum PRP-043; [6]): 8.94 mm | DDA (P. granulosum PRP-043; P. granulosum PRP-043, 200 μg per disc): 40.16 mm | DDA + salt (P. granulosum PRP-043; P. granulosum PRP-043, 200 μg per disc, sodium chloride 100 mM): 35.80 mm | DDA + lipid (P. granulosum PRP-043; P. granulosum PRP-043, 200 μg per disc, triolein 1% v/v): 35.18 mm | DDA (P. granulosum PRP-044; [7]): 0.00 mm | DDA (P. granulosum PRP-044; P. granulosum PRP-044, 200 μg per disc): 38.29 mm | DDA + salt (P. granulosum PRP-044; P. granulosum PRP-044, 200 μg per disc, sodium chloride 100 mM): 37.67 mm | DDA + lipid (P. granulosum PRP-044; P. granulosum PRP-044, 200 μg per disc, triolein 1% v/v): 35.49 mm | DDA (P. granulosum PRP-055; [8]): 10.07 mm | DDA (P. granulosum PRP-055; P. granulosum PRP-055, 200 μg per disc): 40.16 mm | DDA + salt (P. granulosum PRP-055; P. granulosum PRP-055, 200 μg per disc, sodium chloride 100 mM): 38.29 mm | DDA + lipid (P. granulosum PRP-055; P. granulosum PRP-055, 200 μg per disc, triolein 1% v/v): 36.42 mm | SDDA area increase (C. jeikeium NCTC 11915): ∞ | SDDA increase (C. jeikeium NCTC 11915): 13.81 mm | SDDA with TCC (C. jeikeium NCTC 11915; 200 μg DOSS + 200 μg TCC on one disc): 13.81 mm | DDA (C. jeikeium NCTC 11915): 0.0 mm

— patent publication US20100273876A1, “ANTIBACTERIAL FORMULATION COMPRISING A DIALKYL SULPHOSUCCINATE AND A CARBANILIDE ANTIBACTERIAL AGENT” (priority 2007, published 2010)
